Patent US20230117328A1, “METHODS TO TREAT CANCER USING (R)-N-(3-FLUORO-4-((3-((1-HYDROXYPROPAN-2-YL)AMINO)-1H-PYRAZOLO[3,4-B]PYRIDIN-4-YL)OXY)PHENYL)-3-(4-FLUOROPHENYL)-1-ISOPROPYL-2,4-DIOXO-1,2,3,4-TETRAHYDROPYRIMIDINE-5-CARBOXAMIDE” (Array BioPharma Inc., priority 2020, published 2023)
Like-named read-outs stand apart in the source and are kept apart here.

Tested on: female Sprague Dawley rats
Conditions: for ocular histopathology findings, Day 28: 10 rats
[1] = 100 mg/kg PO QD Days 1-14 (Group 4)
[2] = 200 mg/kg PO QD Days 1-14 (Group 5)
[3] = 200 mg/kg PO QD Days 1-14 (Group 5), 9 rats

With CC(C)n1cc(C(=O)Nc2ccc(Oc3ccnc4[nH]nc(N[C@H](C)CO)c34)c(F)c2)c(=O)n(-c2ccc(F)cc2)c1=O.Cl [Compound 1 HCl, (R)—N-(3-fluoro-4-((3-((1-hydroxypropan-2-yl)amino)-1H-pyrazolo[3,4-b]pyridin-4-yl)oxy)phenyl)-3-(4-fluorophenyl)-1-isopropyl-2,4-dioxo-1,2,3,4-tetrahydropyrimidine-5-carboxamide hydrochloride] the “ocular histopathology findings, Day 56” value (100 mg/kg PO QD Days 1-7 (Group 2), recovery necropsy, 5 rats) was “unilateral minimal diffuse atrophy of the ONL which was considered an equivocal change”, the “ocular histopathology findings, Day 28” value (100 mg/kg PO QD Days 1-7 (Group 2; Test Article 1, Schedule 1)) was “No test article-related observations” and the “incidence of retinal changes (overall)” value [1] was “low incidence”. For the same molecule, the “reversibility of ocular (retinal) changes” value [1] was “did not reverse”, the “animals with ocular (retinal) changes, Day 28” value (100 mg/kg PO QD Days 1-14 (Group 4; Test Article 1, Schedule 2), 9 rats) was “one animal (4F-7) had moderate atrophy of the outer nuclear layer (ONL) of the retina” and the “ocular histopathology findings, Day 28” value (200 mg/kg PO QD Days 1-7 (Group 3; Test Article 2, Schedule 1)) was “No test article-related observations”. The “incidence of retinal changes (overall)” value [2] was “high incidence”, the “reversibility of ocular (retinal) changes” value [2] was “did not reverse” and the “animals with mild atrophy of ONL (thinning to approximately 6-7 nuclei), Day 28” value [3] was “one animal”. For the same molecule, the “animals with minimal atrophy of ONL (thinning to approximately 7-8 nuclei), Day 28” value [3] was “two animals”, the “animals with minimal degeneration of the rods and cones layer, Day 28” value [3] was “six animals” and the “animals with moderate atrophy of ONL (thinning to approximately 4-5 nuclei), Day 28” value [3] was “five animals”. The “animals with moderate degeneration of rod and cone processes, Day 28” value [3] was “two animals”, the “animals with ocular (retinal) changes, Day 28” value (200 mg/kg PO QD Days 1-14 (Group 5; Test Article 2, Schedule 2), 9 rats) was “retinal changes were observed in eight animals” and the “tolerability (body weight, clinical observations, deaths)” value (female rats, 100 or 200 mg/kg PO QD for 7 or 14 days) was “well tolerated with no effects on body weight, adverse clinical observations or deaths related to test article”.
